Measurements taken from paper PMC11109052, “Metabolism characterization and toxicity of N-hydap, a marine candidate drug for lung cancer therapy by LC–MS method” (Natural Products and Bioprospecting, 2024).
Where two headings read alike, the source gives them in different places.

Key:
[1] = Pharmacokinetics studies in mice (plasma); assay type: in vivo
Protocol: Mice were fasted for 12 h with access to water before drug administration. N-Hydap was dissolved in a solution containing 50% methanol and water. Before administration, the drug was diluted with PBS to achieve concentrations of 5 mg/kg and 2 mg/kg for gastric gavage and tail vein administration, respectively. Blood samples (120 μL) were collected from the orbital venous plexus at 2, 5, 10, 15, 30, 60, 90, 120, 180, and 240 min after N-hydap administration. The blood samples were collected into heparinized micro-centrifuge tubes and immediately centrifuged at 8000 rpm for 5 min at 4 °C. Plasma samples were prepared by adding an internal standard (IS) solution, Tes to the samples, followed by vortexing. The mixtures were then centrifuged at 4 °C and 13,000 rpm for 15 min. The resulting supernatant was dried under vacuum for 3–4 h, and the dry powder was reconstituted with a solution of 50% methanol and water. Finally, the plasma samples were analyzed using LC–MS, following the previously described method.
DAS 2.0 was used to calculate pharmacokinetic parameters using the standard non-compartmental method. All results were presented as mean ± standard deviation and significant differences were analyzed using One-way ANOVA by GraphPad Prism 8. Statistical significance was defined as p < 0.05.

Cyp2d22 = experiment: Real-time PCR mRNA level after 7 days gavage: Cyp2d22 (human homolog CYP2D6); assay type: in vivo, mice; set-up: key to CYP2D6 mNA expression: ↑: up-regulation; ↓: down-regulation; –: no change
Protocol: Mice were randomly divided into four groups, with eight animals in each group. The mice received oral pretreatment with N-hydap for 7 days at doses of 2, 5, and 10 mg/kg/day, which were considered as the low dose, medium dose, and high dose, respectively. Correspondingly, the control group received PBS. On the 8th day, the liver and kidneys were removed, and organs from eight mice per group were combined to prepare MLMs and MKMs using the detailed procedures above. Subsequently, we determined the activity of CYP and UGT enzymes by specific substrate metabolized with MLMs (0.5 mg/mL) and MKMs (0.2 mg/mL) in vitro. Specifically, the following selective substrates were used for the respective enzymes: PH (1 μM) for CYP1A2, DIC (1 μM) for CYP2C9, MP (90 μM) for CYP2C19, DM (1 μM) for CYP2D6, CZX (10 μM) for CYP2E1, Tes (1 μM) for CYP3A4, SN38 (1 μM) for UGT1A1, CACD (100 μM) for UGT1A3, Sero (20 μM) for UGT1A6, and Prop (1 μM) for UGT1A9. All substrates were dissolved in methanol or DMSO. The incubation procedure was carried out as mentioned above, and the reaction was terminated with VER (20 ng/mL) in ESI+ mode and CLP (200 ng/mL) in ESI− mode. In the ex vivo experiments, the activity of enzymes was measured by quantifying the production of various metabolites (nM/mg protein/min). The metabolites and their corresponding enzymes are as follows: APAP from PH, 4-OH-DIC from DIC, 4-OH-MP from MP, DXO from DM, 6-OH-CZX from CZX, 6-OH-Tes from Tes, SN38-G from SN38, CACD-G from CACD, Sero-G from Sero, Prop-G from Prop. The measurements were performed using multiple reaction monitoring (MRM) transitions, which are specific mass spectrometry transitions used for quantification. […]
Total RNA from liver and kidney samples taken after 7 days of N-hydap gavage was extracted using the Animal Total RNA Isolation Kit (Foregene, Chengdu, Sichuan, China) following the manufacturer’s instructions. The concentrations of total RNA were determined by a nucleic acid concentration tester at 260/280 nm. […]

[2] = Stability in KPI solution (pH 7.4); assay type: physicochemical; conditions: for stability, Accuracy (Bias, %): KPI
Protocol: To verify the feasibility and reliability of the established method, studies on the linearity, accuracy, precision, and stability of N-hydap in potassium phosphate buffer (KPI, pH 7.4, were prepared by mixing KH2PO4 and K2HPO4 in corresponding proportions, and then adding NaOH and H3PO4 to pH 7.4), plasma, and tissue homogenate were carried out. The peak area ratios (analyte/IS) were plotted against the concentrations of the analytes prepared to obtain the calibration curves. Least squares linear regression analysis was used to determine the slopes, intercepts, and determination coefficients (R^2) which should be 0.99 or above of calibration curves. The standard curve equations were determined as y = 0.0001512x + 0.04394 (R^2 = 0.9980) for KPI, y = 0.001579x − 0.09233 (R^2 = 0.9923) for plasma, and y = 0.002271x + 0.03542 (R^2 = 0.9978) for tissue homogenate (Supplementary Fig. 1A–C).
The stability of the KPI solution was examined after storage at 4 °C for 24 h and incubation at 37 °C for 4 h, which was conducted using the QC samples at three concentrations (five samples for each concentration). Stability in plasma and tissue homogenate was assessed by testing samples stored at both 4 °C and room temperature for 24 h.

[3] = mouse, plasma, iv, mice, tail vein injection 2 mg/kg
[4] = mouse, plasma, mice, oral administration 5 mg/kg

For `CC1CCC2C(C=CC(C)C2C(=O)c2c(O)c(C3(O)CCC(O)C4OC43)cn(O)c2=O)C1` (centres unmarked) [N-hydap, N-Hydroxyapiosporamide], the “CL, experimental results” value ([1]; Table 4 experimental column) was “High clearance”, the CLz/F ([1]; mice, tail vein injection 2 mg/kg) was 31 ± 1 mL/min/kg and the AUC(0-t) [1, 3] was 2.36 µM·h. For the same compound, the Cmax [1, 3] was 4.79 ± 0.726 µM, the Tmax [1, 3] was 3 min and the half-life ([1]; mouse, plasma, iv, mice, tail vein injection 2 mg/kg, read-out: t1/2z) was 61.2 ± 14.2 min. It also gave a half-life ([1]; mouse, plasma, Table 4 experimental column, read-out: T1/2, experimental results) of less than 60 min, a bioavailability ([1]; mouse, plasma, mice, oral 5 mg/kg vs tail vein 2 mg/kg, read-out: F (oral bioavailability)) of 24% and an AUC(0-t) [1, 4] of 1.41 µM·h. For the same compound, the Cmax [1, 4] was 2.06 ± 0.951 µM, the Tmax [1, 4] was 15 min and the CL/F ([1]; mouse, plasma, mice, oral administration 5 mg/kg, read-out: CLz/F) was 134 ± 39 mL/min/kg. The half-life ([1]; mouse, plasma, mice, oral administration 5 mg/kg, read-out: t1/2z) was 57.6 ± 12.7 min, the “CYP2D6 mNA expression” value (Cyp2d22; Kidney) was “–” and the “CYP2D6 mNA expression” value (Cyp2d22; Liver) was “–”. The “mRNA levels of Cyp2d22” value (Cyp2d22; mice, 2, 5, 10 mg/kg p.o. 7 days) was “No significant changes”, the “results of the stability experiments” value ([2]; KPI solution, plasma and tissue homogenate, all storage conditions) was “no significant degradation” and the “stability, Accuracy (Bias, %)” value ([2]; 200 nM, 4℃ for 24h) was 113.85%. For the same compound, the “stability, Accuracy (Bias, %)” value ([2]; 200 nM, 37℃ for 4h) was 87.75%, the “stability, Accuracy (Bias, %)” value ([2]; 600 nM, 4℃ for 24h) was 105.48% and the “stability, Accuracy (Bias, %)” value ([2]; 600 nM, 37℃ for 4h) was 85.75%. The “stability, Accuracy (Bias, %)” value ([2]; 2500 nM, 4℃ for 24h) was 104.40% and the “stability, Accuracy (Bias, %)” value ([2]; 2500 nM, 37℃ for 4h) was 97.32%.
